Measured values as given in PubChem BioAssay (NCI).
“And” between values parts separate entries of the source, which are not always exact repeats. Equal values may be shown once.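 A five-concentration, 48-hour dose response in 96-well plates underlies each endpoint, interpolated linearly between surrounding concentrations. Abbreviation: GI50, concentration required for 50% inhibition of growth. TGI: total growth inhibition.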

Experiments:
Experiment in all cases: DTP human tumour cell line panel, 48 h
RPMI-8226 leukemia = test system: RPMI-8226 leukemia
NCI-H460 lung = test system: NCI-H460 lung
HCT-15 colon = test system: HCT-15 colon
HOP-92 NSCLC = test system: HOP-92 NSCLC
RXF 393 renal = test system: RXF 393 renal
NCI-H23 lung = test system: NCI-H23 lung
BT-549 breast = test system: BT-549 breast
HT29 colon = test system: HT29 colon
COLO 205 colon = test system: COLO 205 colon
CAKI-1 renal = test system: CAKI-1 renal
MDA-MB-231 breast = test system: MDA-MB-231 breast
LOX IMVI melanoma = test system: LOX IMVI melanoma
K-562 leukemia = test system: K-562 leukemia
SF-539 CNS = test system: SF-539 CNS
786-0 renal = test system: 786-0 renal
MDA-MB-435 = test system: MDA-MB-435
MOLT-4 leukemia = test system: MOLT-4 leukemia
SNB-75 CNS = test system: SNB-75 CNS
HS 578T breast = test system: HS 578T breast
OVCAR-5 ovarian = test system: OVCAR-5 ovarian
KM12 colon = test system: KM12 colon
OVCAR-4 ovarian = test system: OVCAR-4 ovarian
NCI-H522 lung = test system: NCI-H522 lung
SK-OV-3 ovarian = test system: SK-OV-3 ovarian
DU-145 prostate = test system: DU-145 prostate
SN12C renal = test system: SN12C renal
HOP-62 NSCLC = test system: HOP-62 NSCLC
NCI/ADR-RES ovarian = test system: NCI/ADR-RES ovarian
OVCAR-8 ovarian = test system: OVCAR-8 ovarian
PC-3 prostate = test system: PC-3 prostate
T-47D breast = test system: T-47D breast
HCC-2998 colon = test system: HCC-2998 colon
CCRF-CEM leukemia = test system: CCRF-CEM leukemia
MALME-3M melanoma = test system: MALME-3M melanoma
SF-268 CNS = test system: SF-268 CNS
U251 CNS = test system: U251 CNS
SK-MEL-28 melanoma = test system: SK-MEL-28 melanoma
TK-10 renal = test system: TK-10 renal
MCF7 breast = test system: MCF7 breast
UO-31 renal = test system: UO-31 renal
HCT-116 colon = test system: HCT-116 colon
UACC-62 melanoma = test system: UACC-62 melanoma
M14 melanoma = test system: M14 melanoma
EKVX NSCLC = test system: EKVX NSCLC
SW-620 colon = test system: SW-620 colon
IGROV1 ovarian = test system: IGROV1 ovarian
A498 renal = test system: A498 renal
HL-60(TB) leukemia = test system: HL-60(TB) leukemia
SNB-19 CNS = test system: SNB-19 CNS

For C/C=C/C1=CN2C(=O)c3cc(OC4OC(C)C(NC)C(C)(O)C4O)c(C)cc3N=C[C@@H]2C1 (stereo partly specified), the GI50 (RPMI-8226 leukemia) was 0.0246 µM, the TGI (RPMI-8226 leukemia) was 0.0947 µM and the GI50 (NCI-H460 lung) was 0.0237 µM. The GI50 (HCT-15 colon) was 0.174 µM, the TGI (HCT-15 colon) was 11.5 µM and the GI50 (HOP-92 NSCLC) was 0.0687 µM. The TGI (HOP-92 NSCLC) was > 100 µM, the GI50 (RXF 393 renal) was 0.014 µM and the TGI (RXF 393 renal) was 0.0315 µM. For the same compound, the GI50 (NCI-H23 lung) was 0.0197 µM, the TGI (NCI-H23 lung) was 0.282 µM and the GI50 (BT-549 breast) was 0.0191 µM. It also gave a TGI (BT-549 breast) of 0.0408 µM, a GI50 (HT29 colon) of 0.0242 µM and a TGI (HT29 colon) of 0.066 µM. For the same compound, the GI50 (COLO 205 colon) was 0.0175 µM, the TGI (COLO 205 colon) was 0.0411 µM and the GI50 (CAKI-1 renal) was 0.0391 µM. It also gave a GI50 (MDA-MB-231 breast) of 0.0357 µM, a TGI (MDA-MB-231 breast) of 17.1 µM and a GI50 (LOX IMVI melanoma) of 0.0133 µM. It also gave a TGI (LOX IMVI melanoma) of 0.0415 µM, a GI50 (K-562 leukemia) of 0.0258 µM and a GI50 (SF-539 CNS) of 0.0183 µM. For the same compound, the TGI (SF-539 CNS) was 0.137 µM, the GI50 (786-0 renal) was 0.0226 µM and the TGI (786-0 renal) was 0.0493 µM. For the same compound, the GI50 (MDA-MB-435) was 0.0158 µM, the TGI (MDA-MB-435) was 0.032 µM and the GI50 (MOLT-4 leukemia) was 0.0124 µM. For the same compound, the TGI (MOLT-4 leukemia) was 0.178 µM, the GI50 (SNB-75 CNS) was 0.0159 µM and the TGI (SNB-75 CNS) was 0.0555 µM. It also gave a GI50 (HS 578T breast) of 0.0539 µM, a GI50 (OVCAR-5 ovarian) of 0.0431 µM and a TGI (OVCAR-5 ovarian) of 10.4 µM. For the same compound, the GI50 (KM12 colon) was 0.0345 µM, the TGI (KM12 colon) was 0.544 µM and the GI50 (OVCAR-4 ovarian) was 0.0258 µM. For the same compound, the GI50 (NCI-H522 lung) was 0.00762 µM, the TGI (NCI-H522 lung) was 0.0301 µM and the TGI (SK-OV-3 ovarian) was 11.9 µM. For the same compound, the GI50 (DU-145 prostate) was 0.0382 µM, the TGI (DU-145 prostate) was 1.58 µM and the GI50 (SN12C renal) was 0.033 µM. It also gave a TGI (SN12C renal) of 11.1 µM, a GI50 (HOP-62 NSCLC) of 0.0222 µM and a TGI (HOP-62 NSCLC) of 0.0703 µM. It also gave a TGI (NCI/ADR-RES ovarian) of 0.735 µM, a GI50 (OVCAR-8 ovarian) of 0.0179 µM and a TGI (OVCAR-8 ovarian) of 0.087 µM. The GI50 (PC-3 prostate) was 0.0441 µM, the TGI (PC-3 prostate) was 26.8 µM and the GI50 (T-47D breast) was 0.0247 µM. It also gave a GI50 (HCC-2998 colon) of 0.0585 µM, a TGI (HCC-2998 colon) of 0.336 µM and a GI50 (CCRF-CEM leukemia) of 0.013 µM. The GI50 (MALME-3M melanoma) was 0.0201 µM, the TGI (MALME-3M melanoma) was 0.0396 µM and the GI50 (SF-268 CNS) was 0.0216 µM. The TGI (SF-268 CNS) was 0.0372 µM, the GI50 (U251 CNS) was 0.0148 µM and the TGI (U251 CNS) was 0.245 µM and 0.13 µM. It also gave a GI50 (SK-MEL-28 melanoma) of 0.0225 µM, a TGI (SK-MEL-28 melanoma) of 0.0508 µM and a GI50 (TK-10 renal) of 0.0264 µM. It also gave a TGI (TK-10 renal) of 0.0683 µM, a GI50 (MCF7 breast) of 0.00847 µM and a TGI (MCF7 breast) of 11.9 µM. For the same compound, the GI50 (UO-31 renal) was 0.024 µM, the TGI (UO-31 renal) was 0.0596 µM and the TGI (HCT-116 colon) was 11.6 µM. It also gave a GI50 (UACC-62 melanoma) of 0.0167 µM, a TGI (UACC-62 melanoma) of 0.0361 µM and a GI50 (M14 melanoma) of 0.0141 µM. For the same compound, the TGI (M14 melanoma) was 0.0312 µM, the GI50 (EKVX NSCLC) was 0.242 µM and the TGI (EKVX NSCLC) was 0.0203 µM. For the same compound, the GI50 (SW-620 colon) was 0.0224 µM, the GI50 (IGROV1 ovarian) was 0.03 µM and the GI50 (A498 renal) was 0.0173 µM. The TGI (A498 renal) was 0.0319 µM, the GI50 (HL-60(TB) leukemia) was 0.0211 µM and the TGI (HL-60(TB) leukemia) was 0.101 µM. For the same compound, the GI50 (SNB-19 CNS) was 0.0307 µM and the TGI (SNB-19 CNS) was 12.4 µM.
